According to article PMC2834185 (Nature chemical biology, 2010):
“Also recorded” adds a separate entry of the source.

Tests used:
embryonic zebrafish [1] = experiment: photomotor response; assay type: in vivo; settings: for effect on PMR latency period / effect on PMR excitation phase (motor response to the first stimulus) / effect on PMR refractory period (response to the second stimulus) / effect on motor activity in the PMR: embryonic zebrafish; for effect on PMR latency period / effect on PMR excitation phase (motor response to the first stimulus) / effect on motor activity in the PMR: light stimulus; for effect on PMR refractory period (response to the second stimulus): second light pulse; for suppression of AzMet behavioral effects (PMR excitation): AzMet co—treated with 2—PAM and atropine
embryonic zebrafish [2] = experiment: embryonic touch response; assay type: in vivo; settings: touch stimulus
purified AChE = purified AChE (Homo sapiens, UniProt P22303); experiment: AChE activity assay in vitro; settings: 10 μM
Chain of purified AChE (P22303 32-614): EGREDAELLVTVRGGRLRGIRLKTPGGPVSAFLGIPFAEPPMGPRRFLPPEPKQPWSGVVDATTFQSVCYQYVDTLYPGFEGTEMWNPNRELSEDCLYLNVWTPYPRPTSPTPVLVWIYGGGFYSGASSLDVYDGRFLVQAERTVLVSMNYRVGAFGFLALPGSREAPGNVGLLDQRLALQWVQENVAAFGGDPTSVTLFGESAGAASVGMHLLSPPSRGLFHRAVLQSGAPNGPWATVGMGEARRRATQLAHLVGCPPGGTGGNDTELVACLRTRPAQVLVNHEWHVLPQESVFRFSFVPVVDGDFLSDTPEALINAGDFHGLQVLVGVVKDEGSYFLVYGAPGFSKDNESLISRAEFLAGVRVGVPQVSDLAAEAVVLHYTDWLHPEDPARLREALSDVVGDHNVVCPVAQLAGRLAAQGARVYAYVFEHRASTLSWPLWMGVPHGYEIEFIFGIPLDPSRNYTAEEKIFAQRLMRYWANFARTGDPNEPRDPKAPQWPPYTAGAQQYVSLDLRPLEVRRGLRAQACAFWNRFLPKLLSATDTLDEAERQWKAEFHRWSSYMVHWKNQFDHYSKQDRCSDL

MAO—B = molecular target: T1, MAO—B (Homo sapiens, UniProt P27338); settings: in vitro; warfarin at 10 μM
T1 sequence (P27338 1-520): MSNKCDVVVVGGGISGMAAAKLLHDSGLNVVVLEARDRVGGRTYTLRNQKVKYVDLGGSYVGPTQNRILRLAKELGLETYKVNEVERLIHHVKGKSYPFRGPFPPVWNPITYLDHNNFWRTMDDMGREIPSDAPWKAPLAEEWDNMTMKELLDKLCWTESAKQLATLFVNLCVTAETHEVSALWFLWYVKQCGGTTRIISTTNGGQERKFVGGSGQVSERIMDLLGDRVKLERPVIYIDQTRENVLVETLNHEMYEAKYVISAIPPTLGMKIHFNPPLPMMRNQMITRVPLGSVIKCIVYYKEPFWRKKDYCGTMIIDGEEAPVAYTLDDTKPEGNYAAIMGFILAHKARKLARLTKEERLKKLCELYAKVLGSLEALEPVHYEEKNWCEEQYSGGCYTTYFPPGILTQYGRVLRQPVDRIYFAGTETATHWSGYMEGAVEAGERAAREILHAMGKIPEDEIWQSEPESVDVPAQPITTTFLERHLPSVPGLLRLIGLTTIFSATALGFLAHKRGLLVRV

**Q.** `Oc1cc2c(cc1O)[C@H]1c3ccccc3CN[C@@H]1CC2` (racemic) [dihydrexidine] was tested. Which “effect on PMR latency period” value (embryonic zebrafish [1]) did it give?
**A.** prolonged latency period

**Q.** What does the source list for `O=[N+]([O-])c1ccc2nc(N3CCNCC3)ccc2c1` [6—nitroquipazine]?
**A.** effect on PMR excitation phase (motor response to the first stimulus) (embryonic zebrafish [1]): exhibited a robust but brief motor response to the first stimulus; effect on PMR refractory period (response to the second stimulus) (embryonic zebrafish [1]): also responded to the second stimulus; effect on PMR refractory period (response to the second stimulus) (embryonic zebrafish [1]; listed as 6—Nitroquipazine): modulates the PMR refractory period

**Q.** `CCCN1CCO[C@@H]2c3cc(O)ccc3OC[C@H]21` [PD128907] was tested. Which “effect on PMR latency period” value (embryonic zebrafish [1]) did it give?
**A.** prolonged latency period

**Q.** `O=C(CCCN1C(=O)c2ccccc2C1=O)N1CCCCCC1` [STR—1] was tested. Which “phenotype in the ETR assay” value (embryonic zebrafish [2]) did it give?
**A.** slow—to—relax (STR) phenotype

**Q.** How did the “inhibition of purified AChE in vitro” value (purified AChE) turn out when `O=C1c2ccccc2-c2nc3ncnn3c(-c3ccccc3Cl)c21` [STR—2] was run?
**A.** did not inhibit purified AChE in vitro

**Q.** And the “phenotype in the ETR assay” value (embryonic zebrafish [2])?
**A.** slow—to—relax (STR) phenotype

**Q.** `CCN1C[C@]2(COC)[C@H](O)C[C@H](OC)[C@@]34[C@@H]5C[C@@]6(O)[C@H](OC(=O)c7ccccc7)[C@@H]5[C@@](OC(C)=O)([C@@H]([C@H](OC)[C@H]23)[C@@H]14)[C@@H](O)[C@@H]6OC` [aconitine] was tested. Which “effect on PMR excitation phase (motor response to the first stimulus)” value (“effect on PMR excitation phase” below) (embryonic zebrafish [1]) did it give?
**A.** prolongation of the PMR excitation period

**Q.** `CN1CCc2cccc3c2[C@H]1Cc1ccc(O)c(O)c1-3` [apomorphine] was tested. Which “effect on PMR latency period” value (embryonic zebrafish [1]) did it give?
**A.** lengthened the PMR latency period

**Q.** And the “effect on PMR latency period” value (embryonic zebrafish [1]; listed as Apomorphine)?
**A.** increases PMR latency period duration

**Q.** How did the “suppression of AzMet behavioral effects (PMR excitation)” value (embryonic zebrafish [1]) turn out when `CN1[C@@H]2CC[C@H]1C[C@@H](OC(=O)C(CO)c1ccccc1)C2` (stereo partly drawn) [atropine] was run?
**A.** counteracted the behavioral effects of AzMet

**Q.** What does the source list for `COP(=S)(OC)SCn1nnc2ccccc2c1=O` [azinphos methyl]?
**A.** paralysis in zebrafish (embryonic zebrafish [1]; compared to untreated controls): caused paralysis in zebrafish; effect on PMR excitation phase (motor response to the first stimulus) (embryonic zebrafish [1]): reduced levels of PMR excitation

**Q.** How did the “effect on motor activity in the PMR” value (embryonic zebrafish [1]) turn out when `CC(C)(C)NCC(O)c1cc(Cl)c(N)c(Cl)c1` (stereo not drawn) [clenbuterol] was run?
**A.** elevated activity in all PMR phases

**Q.** With `CN1C(=O)CN=C(c2ccccc2)c2cc(Cl)ccc21` [diazepam] as the molecule, how does the “effect on motor activity in the PMR” value (embryonic zebrafish [1]) read?
**A.** decreased activity

**Q.** What about the “effect on motor activity in the PMR” value (embryonic zebrafish [1]; listed as Diazepam) of the same molecule?
**A.** reduces motor activity

**Q.** `C[C@]12CC[C@H](O)C[C@H]1CC[C@@H]1[C@@H]2CC[C@]2(C)[C@@H](C3=CC(=O)OC3)CC[C@]12O` [digitoxigenin] was tested. Which “toxicity in the PMR assay” value (embryonic zebrafish [1]; concentrations above the active range (Supplementary Fig. 1)) did it give?
**A.** induced toxicities at higher concentrations

**Q.** What about the “effect on PMR excitation phase” value (embryonic zebrafish [1]) of the same molecule?
**A.** caused a vigorous and prolonged motor response to the stimulus; also recorded: prolongation of the PMR excitation period

**Q.** And the “effect on PMR excitation phase” value (embryonic zebrafish [1]; listed as Digitoxigenin)?
**A.** prolongs duration of the PMR excitation phase

**Q.** How did the “effect on PMR latency period” value (embryonic zebrafish [1]) turn out when `CC(C)[C@@]1(NC(=O)[C@@H]2C[C@@H]3c4cccc5[nH]cc(c45)C[C@H]3N(C)C2)O[C@@]2(O)[C@@H]3CCCN3C(=O)[C@H](Cc3ccccc3)N2C1=O` [dihydroergocristine] was run?
**A.** prolonged latency period

**Q.** How did the “effect on motor activity in the PMR” value (embryonic zebrafish [1]) turn out when `CNC[C@H](O)c1ccc(O)c(O)c1` [epinephrine] was run?
**A.** elevated activity in all PMR phases

**Q.** For `CNC(=O)Oc1ccc2c(c1)[C@]1(C)CCN(C)[C@@H]1N2C` [eserine], which “phenotype in the ETR assay” value (embryonic zebrafish [2]) is on record?
**A.** slow—to—relax (STR) phenotype

**Q.** Which results are given for `CC(C)NCC(O)c1ccc(O)c(O)c1` (stereo not drawn) [isoproterenol]?
**A.** effect on motor activity in the PMR (embryonic zebrafish [1]): increased motor activity throughout the PMR; also recorded: elevated activity in all PMR phases; effect on motor activity in the PMR (embryonic zebrafish [1]; listed as Isoproterenol): increases zebrafish motor activity

**Q.** How did the “suppression of AzMet behavioral effects (PMR excitation)” value (embryonic zebrafish [1]) turn out when `C[n+]1ccccc1C=NO` [pralidoxime] was run?
**A.** counteracted the behavioral effects of AzMet

**Q.** Which “effect on PMR excitation phase” value (embryonic zebrafish [1]) does the source give for `C[C@]12CC[C@H]3[C@@H](CC[C@]4(O)C[C@@H](O)CC[C@]34C(=O)O)[C@@]1(O)CC[C@@H]2C1=CC(=O)OC1` [strophanthidinic acid] here?
**A.** prolongation of the PMR excitation period

**Q.** Which “effect on PMR excitation phase” value (embryonic zebrafish [1]) does the source give for `COc1ccc(C(=O)O[C@H]2CC[C@@]3(C)[C@@H]4CC[C@H]5[C@]6(O)C[C@H](O)[C@@]7(O)[C@@H](CN8C[C@@H](C)CC[C@H]8[C@@]7(C)O)[C@]6(O)C[C@@]53O[C@]24O)cc1OC` [veratridine] here?
**A.** prolongation of the PMR excitation period

**Q.** With `CC(=O)CC(c1ccccc1)c1c(O)c2ccccc2oc1=O` (stereo not drawn) [warfarin] as the molecule, how does the “PMR magnitude stimulant (MAG) phenotype” value (embryonic zebrafish [1]; increased PMR excitation magnitude and duration, warfarin at 10 μM) read?
**A.** do not produce a MAG phenotype

**Q.** And the “inhibition of MAO activity” value (MAO—B)?
**A.** nor inhibit MAO activity
